# System: human IgG (polyclonal antirhamnose antibodies)
# Test: BLI monitoring of covalent reaction with human IgG (Figure 4B)
# Format: binding
# Conditions: 10 μM cARM, 230 μM human IgG, up to 25 h
# Excerpt: The design of rhamnose-SO2F-cARM was again supported by in-silico docking and predicted to preorganize electrophilic SO2F proximal to lysine 104 and serine 53 of the anti-23F heavy chain as well as tyrosine 32 of the light chain (Figure S3). To evaluate the capacity of rhamnose-SO2F-cARMs to specifically label polyclonal antirhamnose antibodies, a tool cARM with a biotin TBD was synthesized (compound 12, Figure 4A, Scheme S5). As an orthogonal kinetics assay to fluorescent gels, tool compound 12 labeling kinetics was first evaluated using an in-house BLI assay and compared to acyl imidazole cARM and ARM analogs. […] Solutions were immediately loaded onto streptavidin probes (Figure 4B, Figure S8). In this assay, rhamnose competition blocks noncovalent antirhamnose recruitment, thus the signal amplitude is directly proportional to the covalently labeled antibody product.
# Figure 4 Selectivity and kinetic analysis of optimized Rha-SO2F-cARMs A. Chemical structures of tool compounds used in this study. B. cARM 12 (10 μM) was incubated with human IgG or BSA (230 μM) then diluted 8× with 100 mM competitor rhamnose spiked kinetics buffer and loaded onto streptavidin probes in BLI. The association plateau was plotted against time to yield the % labeled vs time covalent labeling curve C. Kinetic fluorescence SDS-PAGE assay similar to that in Figure 2D. […]
smiles,measurement,value
C[C@@H]1O[C@@H](OCc2cn(CCc3cn(C(=O)OCCOCCOCCOCCOCCOCCOCCOCCNC(=O)CCCC[C@@H]4SC[C@@H]5NC(=O)N[C@@H]54)cn3)nn2)[C@H](O)[C@H](O)[C@H]1O [compound 4],progress of labeling reaction,still in the linear phase of the reaction

# Source: article PMC10683482, “Offsetting Low-Affinity Carbohydrate Binding with Covalency to Engage Sugar-Specific Proteins for Tumor-Immune Proximity Induction” (ACS Central Science, 2023)
